Patent US20200016152A1, “TREATMENT OF DISEASES” (Ampio Pharmaceuticals, Inc., priority 2010, published 2020)
“Also recorded” adds a separate entry of the source.

What was measured:
[1] = tested on: RhoA; test: Rho activation assay (GLISA) in retinal endothelial cells; type: cell-based, human; details: for active Rho A levels induced: thrombin alone
Protocol: This experiment was performed using a commercially-available Rho activation assay (GLISA) purchased from Cytoskeleton, Denver, Colo., following the manufacturer's protocol. Briefly, passage 8 or 12 human retinal endothelial cells (ACBRI 181, Applied Cell Biology Research Institute, Kirkland, Wash.) were cultured on fibronectin-coated (1 μg/cm^2) 6-well tissue culture plates using EGM-2 culture medium (Lonza) for 24 hours in a 37° C. incubator with 5% CO2 (30,000 cells/well in total volume of 3 ml). Then, the medium was aspirated and replaced with Ultraculture medium supplemented with 0.1% fetal bovine serum, L-glutamine, sodium pyruvate, penicillin/streptomycin and ITSS (insulin, transferrin sodium selenium) (all from Lonza) to serum starve the cells and reduce the background level of RhoA. The cells were cultured for 24 hours in a 37° C. incubator with 5% CO2. Test compounds diluted in HBSS were placed in the incubator to equilibrate before addition to the cells. Then, 150 μl of each test compound was added to the appropriate culture wells, and the plates were incubated in the incubator for an additional 15 minutes. Then, thrombin was added to appropriate wells. After 1 minute, the cells were washed one time with 1.5 ml phosphate buffered saline and were then lysed with 100 μl GLISA lysis buffer supplemented with protease inhibitors. The extracts were scraped, transferred to microcentrifuge tubes and transferred to ice to preserve the active form of RhoA. All extracts were then cleared of debris by spinning at 10,000 rpms for 2 minutes at 4° C. The supernatants were transferred to new tubes and placed back on ice. Aliquots of each extract were removed for the GLISA assay and for protein determinations. All protein concentrations were within 10%, and the extracts were used at the achieved concentrations (equates to 15 total protein per well). The GLISA assay was performed using the reagents supplied in the kit.

[2] = tested on: passage 6 human retinal endothelial cells; test: ECIS transendothelial electrical resistance (TER), passage 6 retinal endothelial cells; type: cell-based; details: for ECIS as compared to untreated cells: monitored 50 hours
Protocol: Assays were performed to determine the effect of MR-DKP (a diketopiperazine wherein R^1 in formula I is the side chain of methionine and R^2 is side chain of arginine) on transendothelial electrical resistance (TER) of passage 6 human retinal endothelial cells (Applied Cell Systems Corporation (exclusive distributor for Applied Cell Biology Research Institute), Kirkland, Wash.). Electrical resistance was measured using the electric cell-substrate impedance sensing (ECIS) system (ECISZθ, obtained from Applied Biophysics) with 8-well multiple electrode plates (8W10E). Each well of the plates was stabilized by adding 250 μl of 10 mM cysteine (Sigma) in sterile water to each well and incubating for 30 minutes at room temperature. The wells were then washed two times with 150 μl of sterile water to remove the cysteine. All wells were then coated with 10 μg/cm^2 collagen by diluting the stock solution (0.5 mg/ml Type IV collagenin 0.25% acetic acid (Sigma) in sterile water and adding 150 μl of the resulting solution to each well. The collagen solution was incubated on the plates at 37° C. for 120 minutes and then removed. The wells were washed two times with 400 μl sterile water to remove the collagen. Next, 400 μl of EGM-2 culture medium (Lonza) was added to each well. The plates were connected to the ECISZθ system and were electrically stabilized. The EGM-2 medium was aspirated and replaced with 400 μl of EGM-2 culture medium containing 100,000 cells per well. The plates were reconnected to the ECISZθ system and incubated for 24 hours in a 37° C. incubator with 5% CO2. The EGM-2 medium was aspirated and replaced with 400 μl of EGM-2 culture medium. The plates were reconnected to the ECISZθ system and incubated for 2 hours in a 37° C. incubator with 5% CO2. Solutions of the test compound in HBSS were prepared and placed in the incubator to equilibrate. The test compound was then added to appropriate wells at the following final concentrations: MR-DKP (50 μM and 100 ECIS (resistance) was monitored for 50 hours.
Example 5 was repeated, except that the diketopiperazine used was YE-DKP (a diketopiperazine wherein R^1 in formula I is the side chain of glutamic acid and R^2 is the side chain of tyrosine). […] The increase was about 20% at its maximum.

[3] = tested on: human retinal endothelial cells; test: Actin stress fiber formation (rhodamine-phalloidin F-actin staining); type: cell-based
Protocol: Passage 12 human retinal endothelial cells (ACBRI 181, Cell Systems Corporation (exclusive distributor for Applied Cell Biology Research Institute), Kirkland, Wash.) were seeded into 16-chamber glass slides coated with 5 μg/cm^2 fibronectin at 5000 cells per well in a total volume of 200 μl of EGM-2 medium (Lonza). The slides were cultured in a 37° C. incubator with 5% CO2 for 48 hours with daily medium changes. Then, the test compounds (DA-DKP, S1P and TNFα), diluted in Hanks Balanced Salt Solution (HBSS; Lonza), were added to give the following final concentrations: DA-DKP (100 μM) (Sigma), TNFα (1 ng/ml) (Sigma), and S1P (1 μM) (Sigma). The slides were incubated with the test compounds for 15 minutes or 3 hours in a 37° C. incubator with 5% CO2. After this incubation, the medium was aspirated, and the cells were fixed using 3.6% formaldehyde in phosphate buffered saline (PBS) for ten minutes at room temperature. All wells were then washed two times with 100 μl PBS. The cells were permeabilized using a 0.1% Triton X-100 in PBS for 5 minutes. All wells were then washed two times with 100 μl PBS, and 50 μl of a 1:40 dilution of rhodamine-phalloidin (Invitrogen) in PBS was added to the cells to stain for F-actin and left on the cells for 20 minutes at room temperature. All wells were then washed two times with 100 μl PBS. Then 100 μl PBS was added to each well and the cells were observed and photographed using an inverted microscope using a rhodamine (ex530/em590) filter.

[4] = tested on: human renal glomerular microvascular endothelial cells; test: ECIS transendothelial electrical resistance (TER), glomerular endothelial cells; type: cell-based
Protocol: Assays were performed to determine the effect of DA-DKP on transendothelial electrical resistance (TER) of human renal glomerular microvascular endothelial cells (ACBRI 128, Cell Systems Corporation (exclusive distributor for Applied Cell Biology Research Institute), Kirkland, Wash.). Electrical resistance was measured using the electric cell-substrate impedance sensing (ECIS) system (ECISZθ, obtained from Applied Biophysics) with 8-well multiple electrode plates (8W10E). Each well of the plates was coated with 5 μg/cm^2 fibronectin in HBSS by adding the fibronectin in a volume of 100 μl per well and incubating the plates for 30 minutes in a 37° C. incubator with 5% CO2. The fibronectin solution was removed, and 400 μl of EGM-2 culture medium (Lonza) was added to each well. The plates were connected to the ECISZθ system and were electrically stabilized. The EGM-2 medium was aspirated and replaced with 200 μl of EGM-2 culture medium containing 100,000 cells per well. The plates were reconnected to the ECISZθ system and incubated for 24 hours in a 37° C. incubator with 5% CO2. The EGM-2 medium was aspirated and replaced with 400 μl of fresh EGM-2 culture medium per well. The plates were reconnected to the ECISZθ system and incubated for 6 hours in a 37° C. incubator with 5% CO2. Solutions of the test compounds in HBSS were prepared and placed in the incubator to equilibrate. The test compounds were then added to appropriate wells at the following final concentrations: DA-DKP (100 μM) (Sigma) and TNFα (1 ng/ml) (Sigma). ECIS (resistance) was monitored for 90 hours.

[5] = tested on: human retinal endothelial cells; test: ECIS transendothelial electrical resistance (TER), retinal endothelial cells, 96-well plates; type: cell-based
Protocol: Assays were performed to determine the effect of DA-DKP on transendothelial electrical resistance (TER) of human renal glomerular microvascular endothelial cells (ACBRI 128, Cell Systems Corporation (exclusive distributor for Applied Cell Biology Research Institute), Kirkland, Wash.). Electrical resistance was measured using the electric cell-substrate impedance sensing (ECIS) system (ECISZθ, obtained from Applied Biophysics) with 8-well multiple electrode plates (8W10E). Each well of the plates was coated with 5 μg/cm^2 fibronectin in HBSS by adding the fibronectin in a volume of 100 μl per well and incubating the plates for 30 minutes in a 37° C. incubator with 5% CO2. The fibronectin solution was removed, and 400 μl of EGM-2 culture medium (Lonza) was added to each well. The plates were connected to the ECISZθ system and were electrically stabilized. […] ECIS (resistance) was monitored for 90 hours.
Assays were performed to determine the effect of DA-DKP on transendothelial electrical resistance (TER) of human retinal endothelial cells (ACBRI 181, Cell Systems Corporation (exclusive distributor for Applied Cell Biology Research Institute), Kirkland, Wash.). Electrical resistance was measured using the electric cell-substrate impedance sensing (ECIS) system (ECISZθ, obtained from Applied Biophysics) as described in Example 1, but using 96-well multiple electrode plates […].

[6] = passage 12 cells, 1.0 μM + 0.1 U/ml thrombin
[7] = passage 12 cells, 1.0 μM, no thrombin
[8] = passage 8 cells, 100 μM + 0.1 U/ml thrombin
[9] = passage 8 cells, 100 μM, no thrombin
[10] = passage 12 cells, 100 μM + 0.1 U/ml thrombin
[11] = passage 12 cells, 100 μM, no thrombin
[12] = passage 8 cells, 10.0 μM + 0.1 U/ml thrombin
[13] = passage 8 cells, 10.0 μM, no thrombin
[14] = passage 12 cells, 10.0 μM + 0.1 U/ml thrombin
[15] = passage 12 cells, 10.0 μM, no thrombin

## COc1cc2ncnc(Nc3ccc(Oc4ccccc4)cc3)c2cc1OC [Src-1 Inhibitor]
[1]; [6]
  Mean OD (active RhoA): 0.534
  Percent Inhibition vs. Thrombin: 85.85%
[1]; [7]
  Mean OD (active RhoA): 0.349
  Percent Inhibition vs. Untreated Control: 23.21%

## O=C(O)CC[C@@H]1NC(=O)[C@H](Cc2ccc(O)cc2)NC1=O [YE-DKP]
[2]; 50 μM
  ECIS as compared to untreated cells: did not show a significant increase in ECIS
[2]; 100 μM
  ECIS increase at its maximum: about 20%
  persistence of ECIS increase: persisted for the remainder of the experiment
  start of ECIS increase: about 6 hours
  time at which ECIS increase became significant: about 12 hours
  time at which resistance increased again: about 29 hours
  time at which resistance returned to the levels of the control: around 28 hours
  time of reaching significance again: about 33 hours
  ECIS as compared to untreated cells: increase in ECIS

## CCCCCCCCCCCCC/C=C/[C@@H](O)[C@@H](N)COP(=O)(O)O [S1P, sphingosine-1 phosphate, reference compound]
[3]; S1P 1 μM alone, 15 minutes and 3 hours
  F-actin staining pattern: actin cortical rings

## C[C@@H]1NC(=O)[C@H](CC(=O)O)NC1=O [DA-DKP]
[4]; 100 μM DA-DKP with TNFα 1 ng/ml, not significant
  effect on TNFα-induced drop in ECIS: prevent some of the TNFα-induced drop in ECIS
[4]; 100 μM alone
  ECIS increase persisting after treatment: 35 h
  start of ECIS increase after treatment: about 5.0 hours
  time at which ECIS increase reached significance after treatment: 12 h
[4]; 100 μM alone, glomerular endothelial cells, monitored 90 hours
  ECIS (resistance) as compared to untreated cells: increase of ECIS
[5]; 100 μM
  ECIS (TER) increase, comparison of doses: greatest increase
[5]; doses 0.5 μM, 5.0 μM, 50 μM and 100
  ECIS (TER): dose-dependent increase in ECIS (TER)
[3]; 100 μM DA-DKP with S1P 1 μM, 15 minutes and 3 hours
  effect on cortical rings of S1P: enhance the cortical rings; also recorded: strengthen the protective effects of S1P
[3]; 100 μM DA-DKP with TNFα 1 ng/ml, 15 minutes and 3 hours
  effect on stress fibers caused by TNFα: decreased the stress fiber formation and/or the thickness of the fibers; also recorded: reversed the formation of stress fibers induced by TNFα
[1]; [8]
  Mean OD (active RhoA): 0.377
  Percent Inhibition vs. Thrombin: 40.04%
[1]; [9]
  Mean OD (active RhoA): 0.110
  Percent Inhibition vs. Untreated Control: −7.88%
[1]; [10]
  Mean OD (active RhoA): 0.752
  Percent Inhibition vs. Thrombin: 46.82%
[1]; [11]
  Mean OD (active RhoA): 0.389
  Percent Inhibition vs. Untreated Control: 14.52%

## C[C@@H]1C[C@H]2[C@@H]3CCC4=CC(=O)C=C[C@]4(C)[C@@]3(F)[C@@H](O)C[C@]2(C)[C@@]1(O)C(=O)CO [Dexamethasone]
[1]; [6]
  Mean OD (active RhoA): 0.826
  Percent Inhibition vs. Thrombin: 33.48%
[1]; [7]
  Mean OD (active RhoA): 0.428
  Percent Inhibition vs. Untreated Control: 5.83%

## Thrombin
[1]; passage 8 cells, 0.1 U/ml thrombin alone
  Mean OD (active RhoA): 0.561
[1]; passage 8 cells
  active Rho A levels induced: very high
[1]; passage 12 cells, 0.1 U/ml thrombin alone
  Mean OD (active RhoA): 1.013
[1]; passage 12 cells
  active Rho A levels induced: very high

## CSCC[C@@H]1NC(=O)[C@H](CCCNC(=N)N)NC1=O [MR-DKP]
[2]; 50 μM
  ECIS increase at its maximum: around 20%
  brief elevation in resistance, time window: 2 to 5 h
  start of ECIS increase: about 15 hours
  time at which ECIS increase became significant: about 18 hours
  time at which resistance increased again: about 30 hours
  time at which resistance returned to the levels of the control: 28 to 29 h
  time of reaching significance again: about 33 hours
  ECIS as compared to untreated cells: increase in ECIS
[2]; 50 μM, after the second increase
  persistence of ECIS increase: persisted for the remainder of the experiment
[2]; 100 μM
  ECIS increase at its maximum: around 20%
  persistence of ECIS increase: persisted for the remainder of the experiment
  start of ECIS increase: about 15 hours
  time at which ECIS increase became significant: about 18 hours
  time of reaching significance again: about 33 hours
  ECIS as compared to untreated cells: increase in ECIS

## TNFα [reference compound]
[3]; TNFα 1 ng/ml alone, 15 minutes to 3 hours
  F-actin staining pattern (stress fibers): stress fibers were seen at all times

## O=c1cc(N2CCOCC2)oc2c(-c3ccccc3)cccc12 [PI3 kinase inhibitor LY 294002]
[1]; [12]
  Mean OD (active RhoA): 0.433
  Percent Inhibition vs. Thrombin: 27.86%
[1]; [13]
  Mean OD (active RhoA): 0.056
  Percent Inhibition vs. Untreated Control: 45.32%
[1]; [14]
  Mean OD (active RhoA): 0.685
  Percent Inhibition vs. Thrombin: 58.73%
[1]; [15]
  Mean OD (active RhoA): 0.370
  Percent Inhibition vs. Untreated Control: 18.70%
